Laboratory results published in patent US20110009342A1, “USES OF PDCD5 POLYPEPTIDE FOR TUMOR CHEMOTHERAPY AND ORGAN PROTECTION” (priority 2008, published 2011).
Marks after values point to notes of the source that are not given here.

What was measured:
Raji cells [1] = test: colony-forming ability (CFA) assay, ADM; type: cell-based; details: ADM 5 ng/mL alone; 14 days
Procedure: Analysis for colony forming ability (CFA): U937 cells (ATCC), in the logarithmic phase, were maintained in RPMI 1640 medium supplemented with 20% FBS and 0.4% methyl cellulose (Sigma) by the semi-solid colony culture method and were adjusted to a density of 5×10^3 cells/mL. The cells were divided into control groups and test groups, and each group was assayed in triple wells. U937 cells in the control groups were treated with DNR alone, with the final concentrations of 0 ng/mL and 0.5 ng/mL. U937 cells in the test group were treated with DNR of various concentrations combined with PDCD5 of various concentrations, while the final concentrations of PDCD5 were 0 μg/mL, 0.625 μg/mL, 1.25 μg/mL, and 2.5 μg/mL, respectively. After incubation for 14 days in a 37° C., 5% CO2 and saturatedly humidified incubator, a colony with more than 30 cells was counted by an inverted microscope in order to analyze colony forming ability of each group. […]
Methods: Colony-forming ability (CFA) assay: Raji cells of logarithmic growth phase were cultured, and the method was the same as that in Example 8. […] The numbers of colonies (containing≧30 cells) were counted by inverted microscope to observe the CFA, which is indicated by the ratio of average number of colony formation in each of the test groups versus that of the untreated control group.

K562 cells = test: Annexin-V apoptosis by flow cytometry, Ara-C; type: cell-based; details: Ara-C 0.1 μg/mL; PDCD5 60 μg/mL where combined; 48 hours
Procedure: Methods: Cell staining with FITC/Annexin-V and cell apoptosis detection in vitro by flow cytometry: K562 cells (ATCC) were maintained in RPMI 1640 (Life Technologies, USA) supplemented with 10% FBS (Hyclone, USA), and were plated in 24-well culture dishes to a density of 2×10^5 cells per well. rhPDCD5 protein was added in each well with a final concentration of 15 μg/mL, 30 μg/mL and 60 μg/mL, respectively. Chemotherapeutic drug Ara-C (Pharmacia, Italia) was then added with a final concentration of 0.1 μg/mL and RPMI 1640 medium supplemented with 10% FBS was added to bring the culture system to 1 mL. After incubation for 48 hours, the cells were stained with Annexin-V/PI (Biosea) and then were analyzed for apoptosis by flow cytometry.

Jurkat cells = test: FITC/Annexin-V apoptosis by flow cytometry, DNR; type: cell-based; details: DNR 0.05 μg/mL; PDCD5 5 μg/mL where combined; 24 h
Procedure: Methods: The density of Jurkat cells were adjusted by RPMI 1640 medium (Life Technologies, USA) supplemented with 10% Fetal Bovine Serum (FBS, Hyclone, USA). […] Subsequently, DNR (Pharmacia Italia S.P.A) was added with its final concentration of 0.05 μg/mL, and RPMI 1640 medium supplemented with 10% FBS was added to ensure the system to be 1 mL. After 24h incubation, the sample was stained with FITC/Annexin-V (Beijing Biosea Biotechnology CO., LTD) and detected for apoptosis by flow cytometry.

Raji cells [2] = test: FITC/Annexin-V apoptosis by flow cytometry, DNR; type: cell-based; details: DNR 0.05 μg/mL; PDCD5 5 μg/mL where combined; 24 h
Procedure: Methods: Raji cells were cultured in RPMI 1640 medium (Life Technologies, USA) supplemented with 10% Fetal Bovine Serum (FBS, Hyclone, USA). The cells were seeded in 24-well plates with 2×10^5 cells per well. rhPDCD5 was added to each well and the final concentrations were 0 μg/mL, 2.5 μg/mL and 5 μg/mL, respectively. Subsequently, DNR was added and the final concentrations were 0 μg/mL and 0.05 μg/mL, and RPMI 1640 medium supplemented with 10% FBS was added to ensure the system was brought to 1 mL. After 24 h incubation, the cells were stained with FITC/Annexin-V (Beijing Biosea Biotechnology Co., Ltd.) and the apoptosis was detected by flow cytometry.

U937 cells [3] = test: cell apoptosis assay, DNR; type: cell-based; details: PDCD5 5 μg/mL where combined, 24 hours
Procedure: Methods: Cell apoptosis assay: U937 cells (ATCC), in the logarithmic phase, were maintained in RPMI 1640 (Life Technologies, USA) supplemented with 10% FBS (Hyclone, USA), and were adjusted to a density of 2×10^5 cells/mL and then were divided into control groups and test groups. U937 cells in the control groups were treated with DNR (Pharmacia Italia SPA) alone, with the final concentrations of 0 μg/mL, 0.05 μg/mL, and 0.1 μg/mL. U937 cells in the test groups were treated with DNR of various concentrations combined with PDCD5 of various concentrations, with the final concentrations of PDCD5 being 0 μg/mL, 2.5 μg/mL, and 5 μg/mL, respectively. After being incubated for 24 hours in a 37° C., 5% CO2 and saturatedly humidified incubator, the cells were stained with Annexin-V/PI (Biosea) and then were analyzed for apoptosis with a FACSCalibur flow cytometer.

U937 cells [4] = test: colony forming ability (CFA), DNR; type: cell-based; details: DNR 0.5 ng/mL alone; 14 days
Procedure: (§1) Analysis for colony forming ability (CFA): U937 cells (ATCC), in the logarithmic phase, were maintained in RPMI 1640 medium supplemented with 20% FBS and 0.4% methyl cellulose (Sigma) by the semi-solid colony culture method and were adjusted to a density of 5×10^3 cells/mL. The cells were divided into control groups and test groups, and each group was assayed in triple wells. U937 cells in the control groups were treated with DNR alone, with the final concentrations of 0 ng/mL and 0.5 ng/mL. U937 cells in the test group were treated with DNR of various concentrations combined with PDCD5 of various concentrations, while the final concentrations of PDCD5 were 0 μg/mL, 0.625 μg/mL, 1.25 μg/mL, and 2.5 μg/mL, respectively. After incubation for 14 days in a 37° C., 5% CO2 and saturatedly humidified incubator, a colony with more than 30 cells was counted by an inverted microscope in order to analyze colony forming ability of each group. The colony forming ability was shown as the ratio of average number of colony in each group versus that of the untreated control group in which the final concentrations of DNR and PDCD5 were 0 μg/mL.

U937 xenografts = test: U937 nude mice xenograft model, DNR; type: in vivo, BALB/c nude mice
Procedure: Methods: U937 nude mice xenograft model: BALB/c nude mice (5-6 weeks of age) were pretreated with cyclophosphamide (100 mg/kg, injected intraperitoneally once a day for two consecutive days). On day 3, 1×10^7 (100 μl) of U937 cells were subcutaneously (s.c.) injected into a single flank of each of the mice. The treatments began on day 7 after inoculation when the average tumor diameter reached about 5 mm. The mice were divided randomly into four groups (n=6, i.e., six mice in each group) and treated with normal saline (NS), rhPDCD5 (40 μg, locally injected into the tumor), DNR (40 μg, intraperitoneal) or DNR (40 μg) plus rhPDCD5 (40 μg), once a day for 8 consecutive days.
Tumor volume (V) was determined every other day by vernier caliper measurements and calculated based on the equation of V=ab^2/2, where “a” refers to a long tumor diameter and “b” refers to a short diameter, then tumor volume growth curve was drawn. The percentage of reductions in tumor growth was calculated using the formula: [1-(Tf-Ti)/(Cf-Ci)]×100, where Tf and Ti are the final and initial mean tumor volumes, respectively, of the group receiving a specific treatment, and Cf and Ci are the final and initial mean tumor volumes, respectively, of the NS control group. After the treatment, tumors were collected and weighed and tissues were sectioned and processed by histological hematoxylin and eosin (H&E) staining. Results were statistically analyzed using SPSS 13.0. The measurements were expressed as the mean±standard deviation. Data were analyzed by the single-factor ANOVA and Student's t test and are presented as mean±standard deviation (SD). P<0.05 was considered statistically significant.

mouse livers = test: HE staining of liver paraffin sections of treated K562 xenograft mice; type: in vivo, BALB/c nu/nu mice; details: no PDCD5; Imatinib 1.2 mg oral or IDR 25 μg i.p.; n=6
Procedure: (§2) Methods: BALB/c nu/nu female mice (6-8 weeks of age) were injected intraperitoneally with cyclophosphamide (CTX) (Jiangsu Hengrui Medicine Co., Ltd.), 2 mg/day per mouse for two days. One day after the second cyclophosphamide injection, 1.5×10^7 of K562 cells were injected subcutaneously into the single armpit of each of the mice. The mice bearing K562 cell xenografts were divided randomly into nine groups (n=6, i.e., six mice in each group) and each of the mice was i.p. treated, respectively, with normal saline, PDCD5, IDR (Sigma Corporation), and IDR plus PDCD5. […] At the end of the experiment, mice were killed. The mice were the same batch of that of Example 6. The excised liver of mice after treatment were fixed in 10% neutrally buffered formalin and then embedded in paraffin after dehydration. The paraffin embedding was cut and paraffin sections after HE staining were used to observe the necrosis of experimental mouse livers. Meanwhile, paraffin sections after Tunel (Roche Inc.) staining were used to observe the apoptosis of experimental mouse livers, and then the number of apoptotic cells was counted in five high-power microscope field for statistical analysis.

mice hearts = test: HE staining of heart paraffin sections of treated K562 xenograft mice; type: in vivo, BALB/c nu/nu mice; details: no PDCD5; Imatinib 1.2 mg oral or IDR 25 μg i.p.; n=6
Procedure: as §2, with “hearts” for “liver”, “myocardial congestion, hemorrhage, and myofiber degeneration” for “necrosis”, “heart” for “experimental mouse livers. Meanwhile, paraffin sections after Tunel (Roche Inc.) staining were used to observe the apoptosis of experimental mouse livers, and then the number of apoptotic cells was counted”, “mice.” for “five high-power microscope field for statistical analysis.”

HL-60 cells = test: cell apoptosis assay, As2O3; type: cell-based; details: for rate of apoptosis: PDCD5 20 μg/mL where combined, 24 h
Procedure: Methods: Cell apoptosis assay: HL-60 cells (ATCC) of logarithmic growth phase were cultured and the density of cells was 2×10^5/mL. The cells were divided into control and test groups. In the control groups, the HL60 cells were treated only with As2O3 (Harbin Yida Pharmaceutical Co., Ltd.), and the final concentration of As2O3 were 0 μg/mL, 0.25 μg/mL and 0.5 μg/mL, respectively. In the test groups, the HL60 cells were treated with As2O3 in the various concentrations combined with PDCD5 in various concentrations, the final concentrations of PDCD5 being 0 μg/mL, 5 μg/mL, 10 μg/mL and 20 μg/mL, respectively. The cells were incubated in a 37° C., 5% CO2 and saturatedly humidified incubator for 24 h, and subsequently were stained with Annexin-V/PI and detected for apoptosis by flow cytometer.

HL60 cells = test: colony-forming ability (CFA) assay, As2O3; type: cell-based; details: As2O3 0.25 μg/mL alone; 14 days
Procedure: as §1
Colony-forming ability (CFA) assay: HL60 cells of logarithmic growth phase were cultured by a method identical to that in Example 8. The cells were divided into control and test groups (each with 3 wells): In the control groups, the HL60 cells were treated only with arsenic trioxide and the final concentration of which were 0 μg/mL and 0.25 μg/mL, respectively; in the test groups, the HL60 cells were treated with different concentrations of As2O3, which was combined with different concentrations of PDCD5, the final concentrations of PDCD5 were 0 μg/mL, 5 μg/mL, 10 μg/mL and 20 μg/mL, respectively. Cultures were incubated in a 37° C., 5% CO2 and saturatedly humidified incubator for 14 days. The numbers of colonies (containing≧30 cells) were counted on day 14 by inverted microscope. The colony-forming ability was observed as the ratio of the number of average colony formation in the test groups versus that in the untreated control group. […]

COc1cccc2c1C(=O)c1c(O)c3c(c(O)c1C2=O)C[C@@](O)(C(=O)CO)C[C@@H]3O[C@H]1C[C@H](N)[C@H](O)[C@H](C)O1 [ADM, adriamycin]
CFA (ratio to untreated control) (Raji cells [1]): 32%

Nc1ccn([C@@H]2O[C@H](CO)[C@@H](O)[C@@H]2O)c(=O)n1 [Ara-C, arabinoside]
apoptosis rate (K562 cells): 34.87%

COc1cccc2c1C(=O)c1c(O)c3c(c(O)c1C2=O)C[C@@](O)(C(C)=O)C[C@@H]3O[C@H]1C[C@H](N)[C@H](O)[C@H](C)O1 [DNR, Daunorubicin]
rate of apoptosis (Jurkat cells): 27.01%
rate of apoptosis (Raji cells [2]): 17.46%
rate of apoptosis (U937 cells [3]; high-dose DNR 0.1 μg/mL): 23.01%
rate of apoptosis (U937 cells [3]; low-dose DNR 0.05 μg/mL): 21.23%
CFA (ratio to untreated control) (U937 cells [4]): 79%
average tumor weight (U937 xenografts; after the treatment, DNR 40 μg, PDCD5 40 μg where combined): 0.45 ± 0.15 g
inhibition of tumor growth (percentage of inhibition on tumor sizes vs control group) (U937 xenografts; day 15, DNR 40 μg, rhPDCD5 40 μg where combined): 31.97%
Average size of tumors (mean ± SD) (U937 xenografts; fifteenth day, rhPDCD5 40 μg into the tumor, DNR 40 μg intraperitoneal, once a day for 8 days): 410.27 ± 154.93* mm^3

Cc1ccc(NC(=O)c2ccc(CN3CCN(C)CC3)cc2)cc1Nc1nccc(-c2cccnc2)n1 [Imatinib]
Sinusoidal expansion, congestive hemorrhage and necrosis of liver cells surrounding sinusoid: mice graded + (mouse livers): 2 number of mice
Sinusoidal expansion, congestive hemorrhage and necrosis of liver cells surrounding sinusoid: mice graded ++ (mouse livers): 0 number of mice
Sinusoidal expansion, congestive hemorrhage and necrosis of liver cells surrounding sinusoid: mice graded +/− (mouse livers): 0 number of mice
Sinusoidal expansion, congestive hemorrhage and necrosis of liver cells surrounding sinusoid: mice graded − (mouse livers): 4 number of mice
Myocardial hemorrhage and congestion: mice graded + (mice hearts): 1 number of mice
Myocardial hemorrhage and congestion: mice graded ++ (mice hearts): 1 number of mice
Myocardial hemorrhage and congestion: mice graded − (mice hearts): 4 number of mice
Myofiber degeneration: mice graded + (mice hearts): 0 number of mice
Myofiber degeneration: mice graded − (mice hearts): 6 number of mice

arsenious acid [As2O3]
enhancement of induced apoptosis (HL-60 cells): can enhance PDCD5-induced apoptosis
rate of apoptosis (HL-60 cells; high-dose As2O3 0.5 μg/mL): 78.02%
rate of apoptosis (HL-60 cells; low-dose As2O3 0.25 μg/mL): 21.23%
CFA (ratio to untreated control) (HL60 cells): 52%
